Literature values, collected in patent publication US20210393726A1, “USE OF EXTRACT OF VEGETATION WATERS IN THE REGENERATION OF EPITHELIAL TISSUE” (FATTORIA LA VIALLAD DI GIANNI, ANTONIO E BANDINO LO FRANCO …, priority 2017, published 2021).

Details: high concentrations, up to 250-500 mg/kg/day

## OCCc1ccc(O)c(O)c1 [Hydroxytyrosol, hydroxytyrosol]
  toxic effect on in vivo administration: does not have any toxic effect
